Like-named read-outs stand apart in the source and are kept apart here.
Experiments:
[1] = set-up: method as in PMID 26800393; settings: advanced haematological malignancies, cited from earlier work
[2] = Plasma pharmacokinetics (LC-MS/MS); format: in vivo, human; settings: for Cmax / AUC(0-t) / half-life / Tmax: human, plasma, oral; for half-life: read-out: t½ (converted); for Tmax: read-out: Tmax, median
Procedure: Peripheral blood was collected serially to quantify plasma levels of sapanisertib for PK analysis via validated liquid chromatography tandem mass spectrometry with an assay range of 1–1000 ng/mL (MicroConstants, San Diego, CA), during both dose-escalation and expansion phases. Blood samples were collected before each dose and 0.5, 1, 2, 4, 8 and 24 h after dosing on cycle 1, day 1 and cycle 2, day 1, in the dose-escalation phase. In the expansion phase, samples were collected predose and 2, 4 and 6 h postdose on cycle 1, day 1, and then predose and 2 h postdose on day 8, 15 or 22 of cycle 1.

[3] = 6 mg, cycle 2, day 1, QDx3dQW 6 mg
[4] = 7 mg, cycle 2, day 1, QDx5dQW 7 mg
[5] = 9 mg, cycle 2, day 1, QDx3dQW 9 mg

For CC(C)n1nc(-c2ccc3oc(N)nc3c2)c2c(N)ncnc21 [Sapanisertib], the MTD ([1]; QD dosing) is given as 4 mg, the MTD ([1]; QD × 3dQW) is given as 9 mg and the “Plasma accumulation with repeat dosing” value ([2]; any of the schedules) is given as “did not accumulate in plasma to any appreciable extent”. The “Tmax, median” value ([2]; cycle 1, day 1, 2 mg) was 2.0 h, the “Tmax, median” value ([2]; cycle 1, day 1, 4 mg) was 2.0 h and the “AUC0–last [%CV]” value ([2]; cycle 1, day 1, 6 mg) was 124.3 (NA) ng*h/mL. For the same molecule, the t½ ([2]; cycle 1, day 1, 6 mg) was 6.8 h, the “Tmax, median” value ([2]; cycle 1, day 1, 7 mg) was 1.5 h and the “Tmax, median” value ([2]; cycle 1, day 1, 9 mg) was 1.1 h. The “Tmax, median” value ([2]; cycle 1, day 1, 12 mg) was 2.0 h, the “Tmax, median” value ([2]; cycle 1, day 1, 15 mg) was 2.0 h and the “AUC0–last [%CV]” value ([2]; cycle 1, day 1, 16 mg) was 124.9 (NA) ng*h/mL. The “Tmax, median” value ([2]; cycle 2, day 1, QD 2 mg) was 2.0 h, the “Tmax, median” value ([2]; cycle 2, day 1, QD 6 mg) was 2.0 h and the t½ ([2]; cycle 2, day 1, QDx3dQW 6 mg) was 9.1 (NA) h. For the same molecule, the t½ ([2]; cycle 2, day 1, QDx3dQW 16 mg) was 6.6 (2.29) h, the “Tmax, median” value ([2]; cycle 2, day 1, QDx5dQW 10 mg) was 2.0 h and the “Tmax, median” value ([2]; cycle 2, day 1, QDx5dQW 13 mg) was 2.0 h. The “Cmax [%CV]” value ([2]; cycle 2, day 1, QW 7 mg) was 65.8 (NA) ng/mL, the “Tmax, median” value ([2]; cycle 2, day 1, QW 7 mg) was 1 h and the “Cmax [%CV]” value ([2]; cycle 2, day 1, QW 10 mg) was 36.2 (NA) ng/mL. For the same molecule, the “Tmax, median” value ([2]; cycle 2, day 1, QW 15 mg) was 2.0 h, the “Tmax, median” value ([2]; cycle 2, day 1, QW 40 mg) was 2.0 h and the Cmax ([2]; 2 mg, cycle 1, day 1, 2 mg) was 13.5 ng/mL. For the same molecule, the AUC(0-t) ([2]; 2 mg, cycle 1, day 1, 2 mg, read-out: AUC0–last [%CV]) was 65.4 ng·h/mL, the Cmax ([2]; 2 mg, cycle 2, day 1, QD 2 mg) was 15.6 ng/mL and the AUC(0-t) ([2]; 2 mg, cycle 2, day 1, QD 2 mg, read-out: AUC0–24h [%CV]) was 185 ng·h/mL. The half-life ([2]; 2 mg, cycle 2, day 1, QD 2 mg) was 8.1 h, the Cmax ([2]; 4 mg, cycle 1, day 1, 4 mg) was 19.1 ng/mL and the AUC(0-t) ([2]; 4 mg, cycle 1, day 1, 4 mg, read-out: AUC0–24h [%CV]) was 178 ng·h/mL. For the same molecule, the AUC(0-t) ([2]; 4 mg, cycle 1, day 1, 4 mg, read-out: AUC0–last [%CV]) was 63.2 ng·h/mL, the half-life ([2]; 4 mg, cycle 1, day 1, 4 mg) was 7.1 h and the Cmax ([2]; 4 mg, cycle 2, day 1, QD 4 mg) was 20.3 ng/mL. The AUC(0-t) ([2]; 4 mg, cycle 2, day 1, QD 4 mg, read-out: AUC0–24h [%CV]) was 281 ng·h/mL, the AUC(0-t) ([2]; 4 mg, cycle 2, day 1, QD 4 mg, read-out: AUC0–last [%CV]) was 61.9 ng·h/mL and the Tmax ([2]; 4 mg, cycle 2, day 1, QD 4 mg) was 3.8 h. The half-life ([2]; 4 mg, cycle 2, day 1, QD 4 mg) was 10.3 h, the Cmax ([2]; 6 mg, cycle 1, day 1, 6 mg) was 50.8 ng/mL and the AUC(0-t) ([2]; 6 mg, cycle 1, day 1, 6 mg, read-out: AUC0–24h [%CV]) was 354 ng·h/mL. For the same molecule, the Cmax ([2]; 6 mg, cycle 2, day 1, QD 6 mg) was 36.9 ng/mL, the AUC(0-t) ([2]; 6 mg, cycle 2, day 1, QD 6 mg, read-out: AUC0–24h [%CV]) was 327 ng·h/mL and the half-life ([2]; 6 mg, cycle 2, day 1, QD 6 mg) was 7.3 h. The Cmax [2, 3] was 59.2 ng/mL, the AUC(0-t) ([2]; 6 mg, cycle 2, day 1, QDx3dQW 6 mg, read-out: AUC0–24h [%CV]) was 777 ng·h/mL and the Tmax [2, 3] was 4 h. It also gave a Cmax ([2]; 7 mg, cycle 1, day 1, 7 mg) of 46.7 ng/mL, an AUC(0-t) ([2]; 7 mg, cycle 1, day 1, 7 mg, read-out: AUC0–24h [%CV]) of 327 ng·h/mL and a half-life ([2]; 7 mg, cycle 1, day 1, 7 mg) of 6.9 h. The Cmax ([2]; 7 mg, cycle 2, day 1, QD 7 mg) was 51.3 ng/mL, the AUC(0-t) ([2]; 7 mg, cycle 2, day 1, QD 7 mg, read-out: AUC0–24h [%CV]) was 351 ng·h/mL and the Tmax ([2]; 7 mg, cycle 2, day 1, QD 7 mg) was 4 h. The half-life ([2]; 7 mg, cycle 2, day 1, QD 7 mg) was 5.63 h, the Cmax [2, 4] was 49.7 ng/mL and the AUC(0-t) ([2]; 7 mg, cycle 2, day 1, QDx5dQW 7 mg, read-out: AUC0–24h [%CV]) was 362 ng·h/mL. The half-life [2, 4] was 6.7 h, the AUC(0-t) ([2]; 7 mg, cycle 2, day 1, QW 7 mg, read-out: AUC0–24h [%CV]) was 351 ng·h/mL and the half-life ([2]; 7 mg, cycle 2, day 1, QW 7 mg) was 5.6 h. For the same molecule, the Cmax ([2]; 9 mg, cycle 1, day 1, 9 mg) was 75.9 ng/mL, the AUC(0-t) ([2]; 9 mg, cycle 1, day 1, 9 mg, read-out: AUC0–24h [%CV]) was 596 ng·h/mL and the half-life ([2]; 9 mg, cycle 1, day 1, 9 mg) was 7.5 h. It also gave a Cmax [2, 5] of 83.1 ng/mL, an AUC(0-t) ([2]; 9 mg, cycle 2, day 1, QDx3dQW 9 mg, read-out: AUC0–24h [%CV]) of 707 ng·h/mL and a Tmax [2, 5] of 2.1 h. For the same molecule, the half-life [2, 5] was 6.9 h, the Cmax ([2]; 10 mg, cycle 1, day 1, 10 mg) was 48.4 ng/mL and the AUC(0-t) ([2]; 10 mg, cycle 1, day 1, 10 mg, read-out: AUC0–24h [%CV]) was 342 ng·h/mL.

From paper PMC7686313, “Phase 1 study of mTORC1/2 inhibitor sapanisertib (TAK-228) in advanced solid tumours, with an expansion phase in renal, endometrial or bladder cancer” (British Journal of Cancer, 2020)
